# Laboratory results from patent publication US20260250251A1, “HETEROCYCLIC COMPOUNDS AS PI3Ka INHIBITORS” (Pikavation Therapeutics, Inc., priority 2022, published 2026).
# How the values were obtained:
# [1] = tested on: T47D (PIK3CA H1047R) cells, pSer473 AKT; assay: pS473 AKT assay in T47D cells; assay type: cell-based; conditions: Homo sapiens, treated 2 h, read-out: T47D_IC50
# Description: (§1) SKBR3 (PIK3CA WT), MCF7 (PIK3CA E545K), and T47D (PIK3CA H1047R) cells were cultured using 10-cm petri dishes with recommended medium. One day before the assay, cells were seeded in 96-well plates. After overnight incubation, cells were treated with different concentrations of PI3Kα inhibitors for 2 h. Cells were then fixed using 4% paraformaldehyde at room temperature for 20 min. Cells were aspirated with 4% paraformaldehyde, and washed using 1× regular phosphate buffered saline 3 times, 5 min each. Any residual phosphate buffered saline was aspirated and cells were blocked using 10% goat serum containing 1% bovine serum albumin and 0.3% Triton X-100 at room temperature for 1 h. Without any additional washing, primary antibodies (rabbit anti-pSer473 AKT) were diluted using blocking buffer and added at a final volume of 50 microliter per well. Assay plates with primary antibodies were maintained overnight at 4° C. Cells were washed using 1× regular phosphate buffered saline 3 times, 5 min each. After the final wash, cells were incubated with horseradish peroxidase-conjugated secondary antibodies (goat Anti-rabbit IgG) and diluted using the same blocking buffer at room temperature for 1 h. Cells were then washed thoroughly using 1× regular phosphate buffered saline 3 times, 5 min each, and any residual phosphate buffered saline was aspirated. Super-Signal ELISA Pico Chemiluminescent Substrate was then added at a final volume of 100 microliter per well. Plates were read on a i3x Multi-Mode Microplate Reader and IC50 values calculated using GraphPad Prism software.
# (§2) Results of the assay described above are presented in Table A. “++++” indicates an IC50 less than 1000 nM; “+++” indicates an IC50 greater than or equal to 1000 nM but less than 5000 nM; “++” indicates an IC50 greater than or equal to 5000 nM but less than 10000 nM; and “+” indicates an IC50 greater than or equal to 10000 nM.
# [2] = tested on: SKBR3 (PIK3CA WT) cells, pSer473 AKT; assay: pS473 AKT assay in SKBR3 cells; assay type: cell-based; conditions: Homo sapiens, SK-BR-3, treated 2 h, read-out: SKBR3_IC50
# Description: as §1, §2
compound,measurement,setting,value
"Nc1nn2c3c(cc(NC(=O)c4cc(F)cc(C(F)(F)F)c4)c(Oc4cc(F)ccc4Cl)c13)CNC2=O [Example 68, N-(2-Amino-3-(2-chloro-5-fluorophenoxy)-8-oxo-7,8-dihydro-6H-pyrazolo[4,5,1-ij]quinazolin-4-yl)-3-fluoro-5-(trifluoromethyl)benzamide]",IC50,[1],< 1000 nM
same,IC50,[2],< 1000 nM
"Nc1n[nH]c2c(-c3cccnc3)cc(NC(=O)c3cc(F)cc(C(F)(F)F)c3)c(Oc3cc(F)ccc3Cl)c12 [Example 16, N-(3-Amino-4-(2-chloro-5-fluorophenoxy)-7-(pyridin-3-yl)-1H-indazol-5-yl)-3-fluoro-5-(trifluoromethyl)benzamide]",IC50,[1],< 1000 nM
same,IC50,[2],1000 to 5000 nM
"Cn1nc(N)c2c(Oc3cc(F)ccc3Cl)c(NC(=O)c3cc(F)cc(Cl)c3)cc(Cl)c21 [Example 60, N-(3-Amino-7-chloro-4-(2-chloro-5-fluorophenoxy)-1-methyl-1H-indazol-5-yl)-3-chloro-5-fluorobenzamide]",IC50,[1],< 1000 nM
same,IC50,[2],< 1000 nM
"Cn1nc(N)c2c(Oc3cc(F)ccc3Cl)c(NC(=O)c3cc(F)cc(C(F)(F)F)c3)cc(CCc3ccccn3)c21 [Example 77, N-(3-Amino-4-(2-chloro-5-fluorophenoxy)-1-methyl-7-(2-(pyridin-2-yl)ethyl)-1H-indazol-5-yl)-3-fluoro-5-(trifluoromethyl)benzamide]",IC50,[1],< 1000 nM
same,IC50,[2],1000 to 5000 nM
"Cn1nc(N)c2c(Oc3cc(F)ccc3Cl)c(NC(=O)c3cc(F)cc(C(F)(F)F)c3)cc(Br)c21 [Example 25, N-(3-Amino-7-bromo-4-(2-chloro-5-fluorophenoxy)-1-methyl-1H-indazol-5-yl)-3-fluoro-5-(trifluoromethyl)benzamide]",IC50,[1],< 1000 nM
same,IC50,[2],< 1000 nM
"Nc1n[nH]c2ccc(NC(=O)c3cc(F)cc(C(F)(F)F)c3)c(Cc3cc(F)ccc3Cl)c12 [Example 5, N-(3-Amino-4-(2-chloro-5-fluorobenzyl)-1H-indazol-5-yl)-3-fluoro-5-(trifluoromethyl)benzamide]",IC50,[1],1000 to 5000 nM
same,IC50,[2],5000 to 10000 nM
"Cn1nc(N)c2c(Oc3cc(F)ccc3Cl)c(NC(=O)c3cc(F)cc(C(F)(F)F)c3)cc(C#CC3(CO)CC3)c21 [Example 44, N-(3-Amino-4-(2-chloro-5-fluorophenoxy)-7-((1-(hydroxymethyl)cyclopropyl)ethynyl)-1-methyl-1H-indazol-5-yl)-3-fluoro-5-(trifluoromethyl)benzamide]",IC50,[1],< 1000 nM
same,IC50,[2],< 1000 nM
"CNc1n[nH]c2ccc(NC(=O)c3cc(F)cc(C(F)(F)F)c3)c(Oc3cc(F)ccc3Cl)c12 [Example 2, N-(4-(2-Chloro-5-fluorophenoxy)-3-(methylamino)-1H-indazol-5-yl)-3-fluoro-5-(trifluoromethyl)benzamide]",IC50,[1],< 1000 nM
same,IC50,[2],1000 to 5000 nM
"Cn1nc(N)c2c(Oc3cc(F)ccc3Cl)c(NC(=O)c3cc(F)cc(C(F)(F)F)c3)cc(C#CC3CCCCN3)c21 (stereo not drawn) [Example 78, N-(3-Amino-4-(2-chloro-5-fluorophenoxy)-1-methyl-7-(piperidin-2-ylethynyl)-1H-indazol-5-yl)-3-fluoro-5-(trifluoromethyl)benzamide]",IC50,[1],< 1000 nM
same,IC50,[2],1000 to 5000 nM
"Nc1nn2c(=O)c3c(c4cc(NC(=O)c5cc(F)cc(C(F)(F)F)c5)c(Oc5cc(F)ccc5Cl)c1c42)CCC3 [Example 74, N-(4-Amino-3-(2-chloro-5-fluorophenoxy)-7-oxo-7,8,9,10-tetrahydrocyclopenta[c]pyrazolo[4,5,1-ij]quinolin-2-yl)-3-fluoro-5-(trifluoromethyl)benzamide]",IC50,[1],< 1000 nM
same,IC50,[2],< 1000 nM
"Nc1n[nH]c2ccc(NC(=O)c3cc(F)cc(C(F)(F)F)c3)c(Oc3cncc(Cl)c3)c12 [Example 3, N-(3-Amino-4-((5-chloropyridin-3-yl)oxy)-1H-indazol-5-yl)-3-fluoro-5-(trifluoromethyl)benzamide]",IC50,[1],< 1000 nM
same,IC50,[2],≥ 10000 nM
"Cn1nc(N)c2c(Oc3cc(F)ccc3Cl)c(NC(=O)c3cc(F)cc(C(F)(F)F)c3)ccc21 [Example 7, N-(3-amino-4-(2-chloro-5-fluorophenoxy)-1-methyl-1H-indazol-5-yl)-3-fluoro-5-(trifluoromethyl)benzamide]",IC50,[1],< 1000 nM
same,IC50,[2],< 1000 nM
"Nc1n[nH]c2ccc(NC(=O)c3csc4ccccc34)c(Oc3cc(F)ccc3Cl)c12 [Example 18, N-(3-Amino-4-(2-chloro-5-fluorophenoxy)-1H-indazol-5-yl)benzo[b]thiophene-3-carboxamide]",IC50,[1],< 1000 nM
same,IC50,[2],< 1000 nM
"Nc1nn2c3c(cc(NC(=O)c4cc(F)cc(C(F)(F)F)c4)c(Oc4cc(F)ccc4Cl)c13)CNC(=O)C2 [Example 36, N-(2-Amino-3-(2-chloro-5-fluorophenoxy)-8-oxo-6,7,8,9-tetrahydro-[1,4]diazepino[6,7,1-hi]indazol-4-yl)-3-fluoro-5-(trifluoromethyl)benzamide]",IC50,[1],< 1000 nM
same,IC50,[2],< 1000 nM
"Cn1nc(N)c2c(Oc3cc(F)ccc3Cl)c(NC(=O)c3cc(F)cc(C(F)(F)F)c3)cc(-c3cnn(C4CCOC4)c3)c21 (stereo not drawn) [Example 28, N-(3-Amino-4-(2-chloro-5-fluorophenoxy)-1-methyl-7-(1-(tetrahydrofuran-3-yl)-1H-pyrazol-4-yl)-1H-indazol-5-yl)-3-fluoro-5-(trifluoromethyl)benzamide]",IC50,[1],< 1000 nM
same,IC50,[2],< 1000 nM
"Cn1nc(N)c2c(Oc3cc(F)ccc3Cl)c(NC(=O)c3cc(F)cc(C(F)(F)F)c3)cc(CC#N)c21 [Example 31, N-(3-Amino-4-(2-chloro-5-fluorophenoxy)-7-(cyanomethyl)-1-methyl-1H-indazol-5-yl)-3-fluoro-5-(trifluoromethyl)benzamide]",IC50,[1],< 1000 nM
same,IC50,[2],< 1000 nM
"CN1CCC(C#Cc2cc(NC(=O)c3cc(F)cc(C(F)(F)F)c3)c(Oc3cc(F)ccc3Cl)c3c(N)nn(C)c23)CC1 [Example 51, N-(3-Amino-4-(2-chloro-5-fluorophenoxy)-1-methyl-7-((1-methylpiperidin-4-yl)ethynyl)-1H-indazol-5-yl)-3-fluoro-5-(trifluoromethyl)benzamide]",IC50,[1],< 1000 nM
same,IC50,[2],≥ 10000 nM
"Nc1n[nH]c2ccc(NC(=O)c3cc(F)cc(C(F)(F)F)c3)c(Oc3cc(F)ccc3Cl)c12 [Example 1, N-(3-Amino-4-(2-chloro-5-fluorophenoxy)-1H-indazol-5-yl)-3-fluoro-5-(trifluoromethyl)benzamide]",IC50,[1],< 1000 nM
same,IC50,[2],< 1000 nM
"Cn1nc(N)c2c(Oc3cc(F)ccc3Cl)c(NC(=O)c3cc(F)cc(C(F)(F)F)c3)cc(/C=C\C#N)c21 [Example 58, (Z)—N-(3-amino-4-(2-chloro-5-fluorophenoxy)-7-(2-cyanovinyl)-1-methyl-1H-indazol-5-yl)-3-fluoro-5-(trifluoromethyl)benzamide]",IC50,[1],< 1000 nM
same,IC50,[2],< 1000 nM
"Nc1n[nH]c2ccc(NC(=O)c3cc(F)cc(C(F)(F)F)c3)c(Nc3cc(F)ccc3Cl)c12 [Example 4, N-(3-Amino-4-((2-chloro-5-fluorophenyl)amino)-1H-indazol-5-yl)-3-fluoro-5-(trifluoromethyl)benzamide]",IC50,[1],< 1000 nM
same,IC50,[2],5000 to 10000 nM
"Cn1nc(N)c2c(Oc3cc(F)ccc3Cl)c(NC(=O)c3cc(F)cc(C(F)(F)F)c3)cc(/C=C/c3ccccn3)c21 [Example 76, (E)-N-(3-Amino-4-(2-chloro-5-fluorophenoxy)-1-methyl-7-(2-(pyridin-2-yl)vinyl)-1H-indazol-5-yl)-3-fluoro-5-(trifluoromethyl)benzamide]",IC50,[1],< 1000 nM
same,IC50,[2],5000 to 10000 nM
